Assay results taken from patent US8350079B2, “Treprostinil formulation” (United Therapeutics Corporation, priority 2008, dated 2013).

How the values were obtained:
[1] = Stability of anhydrous treprostinil at 25° C. (6-month stability report, lot 01A07002); assay type: physicochemical
Description: II. Stability of Anhydrous Form Versus Monohydrate Form of TREPROSTINIL at 25° C.
1. Stability Report (6-month) for anhydrous lot #01A07002
A 3.34-kg sample of treprostinil diethanolamine salt was dissolved in 40 L of sterile water, 60 L of ethyl acetate and 3.2 L of 3 M HCl were added and the mixture stirred. The layers were separated and the aqueous layer was extracted thrice with 20-L portions of ethyl acetate. The four organic layers were combined, the organic solution washed twice with 20-L portions of sterile water, once with 20 L of brine and dried over 2.97 kg of anhydrous sodium sulfate. The mixture was filtered and the filtrate was concentrated to yield treprostinil as a gummy solid. This solid was transferred to glass drying trays and let air-dry for 93 hours. This solid was then dissolved in 23.4 kg of ethanol, warmed to 48° C. and treated with 23.4 kg of warm (40-50° C.) sterile water. The solution was stirred and then stirring was stopped to allow the treprostinil to slowly crystallize. The resulting white solid was collected by filtration in an Aurora filter, washed with 45 L of a cold (6° C.) 20% ethanol in sterile water solution, the filter moved to a Hepa-filtered Finishing Room and the solid dried under house vacuum for 22.3 hours. The solid was transferred to drying trays and further dried in a vacuum oven at 55 deg. C and 0.26 Torr for 22.7 hours to give 2.63 kg (96.3%) of anhydrous treprostinil (Lot #01A07002) as a white solid.

[2] = Stability tests of treprostinil forms (dimer formation, room temperature stability); assay type: physicochemical
Description: The anhydrous form of treprostinil (TREPROSTINIL) has been previously described, e.g., in J. Org. Chem. 2004, 69, 1890-1902. […] A larger amount of dimers can form at higher temperatures. However, dimer formation is negligible at 5° C. Therefore, anhydrous treprostinil must be refrigerated for storage and transport. In the past, treprostinil had to be refrigerated and shipped with ice packs to maintain low (2° C.-8° C.) temperatures.
The instability of anhydrous treprostinil also imposes challenges to its preparation. To obtain anhydrous treprostinil, wet compound from recrystallization was heated in a vacuum. […] Therefore, heating temperature must be carefully controlled to avoid high heat when drying treprostinil in order to remove all water, otherwise these two dimer impurities will be produced.
Data has been generated to characterize a monohydrate form of treprostinil. […] Treprostinil monohydrate can be stored and shipped with no special handling.

HPLC Assay 750W93 ([1]; 3 months): 1.2
HPLC Assay 751W93 ([1]; 3 months): 0.9
HPLC Assay Treprostinil ([1]; 3 months): 98.1%
Physical examination ([1]; 3 months): White powder
Water (Karl Fischer) ([1]; 3 months): 0.7%
HPLC Assay 750W93 ([1]; 6 months): 1.5
HPLC Assay 751W93 ([1]; 6 months): 1.1
HPLC Assay Treprostinil ([1]; 6 months): 95.4%
Physical examination ([1]; 6 months): White powder
Water (Karl Fischer) ([1]; 6 months): 0.8%
HPLC Assay 750W93 ([1]; Initial): 0.2
HPLC Assay 751W93 ([1]; Initial): 0.3
HPLC Assay Treprostinil ([1]; Initial): 99.6%
Physical examination ([1]; Initial): White powder
Water (Karl Fischer) ([1]; Initial): 0.4%
Dimer formation ([2]; 5° C.): negligible
Stability (stability tests) ([2]; 25° C., dimers formed upon standing): not stable
Dimer formation on heating the solid ([2]; solid heated above 50° C. in vacuum drying): two dimers of treprostinil formed
SMILES: CCCCC[C@H](O)CC[C@@H]1[C@H]2Cc3cccc(OCC(=O)O)c3C[C@H]2C[C@H]1O [Lot No. 01 A07002 (Anhydrous), 2-((1R,2R,3aS,9aS)-2-hydroxy-1-((S)-3-hydroxyoctyl)-2,3,3a,4,9,9a-hexahydro-1H-cyclopenta[b]naphthalen-5-yloxy)acetic acid]
